ChEMBL document CHEMBL5543061, “Recent advances of antitumor leading compound Erianin: Mechanisms of action and structural modification” (Eur J Med Chem, 2023)

Assays:
LNCaP [1] = assay: Cytotoxicity against human LNCaP cells assessed as reduction in cell growth incubated for 24 hrs by MTT assay; format: functional, cell-based
143B [2] = assay: Antiproliferative activity against human 143B cells assessed as inhibition of cell growth measured after 48 hrs by MTT assay; format: functional, cell-based
HL-60 [3] = assay: Antiproliferative activity against human HL-60 cells assessed as reduction in cell viability incubated for 72 hrs by MTT assay; format: functional, cell-based; conditions: HL-60, 72 h
[4] = Half life in rat at 50 mg/kg, iv; format: ADME, organism-based; conditions: in vivo
HepG2 [5] = assay: Anticancer activity against human HepG2 cells assessed as cell growth reduction incubated for 48 hrs by MTT assay; format: functional, cell-based; conditions: HepG2, 48 h
EJM = assay: Antitumor activity against human EJM cells assessed as reduction in cell viability incubated for 24 hrs by CCK-8 assay; format: functional, cell-based
[6] = Oral bioavailability in rat at 10 mg/kg; format: ADME, organism-based; conditions: in vivo
[7] = Half life in Beagle dog at 30 mg/kg, iv measured for 8 to 12 hrs by LC-MS/MS analysis; format: ADME, organism-based, Canis lupus familiaris; conditions: in vivo, time 8-12 hrs
HepG2 [8] = assay: Antiproliferative activity against human HepG2 cells; format: functional, cell-based
HepG2 [9] = assay: Anticancer activity against human HepG2 cells assessed as reduction in cell viability measured for 24 hrs by MTT assay; format: functional, cell-based; conditions: HepG2, 24 h
[10] = Antiproliferative activity against human MG-63.3 cells assessed as reduction in cell viability measured for 48 hrs by MTT assay; format: functional, cell-based; conditions: MG-63.3, 48 h
A-375 = assay: Antiproliferative activity against human A-375 cells assessed as reduction in cell viability incubated for 72 hrs by MTT assay; format: functional, cell-based; conditions: A-375, 72 h
HCT-116 [11] = assay: Antiproliferative activity against human HCT-116 cells assessed as reduction in cell viability incubated for 72 hrs by MTT assay; format: functional, cell-based; conditions: HCT-116, 72 h
LLC-MK2 = assay: Antiproliferative activity against Rhesus monkey LLC-MK2 cells assessed as reduction in cell viability incubated for 48 hrs by MTT assay; format: functional, cell-based; conditions: Macaca mulatta, LLC-MK2, 48 h
T-24 = assay: Antiproliferative activity against human T24 cells assessed as reduction in cell viability incubated for 48 hrs by MTT assay; format: functional, cell-based; conditions: T-24, 48 h
HepG2 [12] = assay: Antiproliferative activity against human HepG2 cells assessed as inhibition of cell growth relative to control; format: functional; set-up: scale not given: the % may be the effect or the level left
HeLa [13] = assay: Antiproliferative activity against human HeLa cells assessed as reduction in cell viability by MTT assay; format: functional, cell-based
HuH-1 = assay: Antiproliferative activity against human HuH-1 cells; format: functional, cell-based
HLE = assay: Antiproliferative activity against human HLE cells; format: functional, cell-based
[14] = Antiproliferative activity against human MG-63.3 cells assessed as reduction in cell viability measured for 24 hrs by MTT assay; format: functional, cell-based; conditions: MG-63.3, 24 h
PC-3 = assay: Antiproliferative activity against human PC-3 cells assessed as reduction of cell viability incubated for 24 to 72 hrs by CCK-8 assay; format: functional, cell-based
[15] = Elimination half life in rat at 2 mg/kg, iv; format: ADME, organism-based; conditions: in vivo, read-out: beta t1/2 (converted)
HepG2 [16] = assay: Anticancer activity against human HepG2 cells assessed as cell growth reduction incubated for 24 hrs by MTT assay; format: functional, cell-based; conditions: HepG2, 24 h
PLC-PRF-5 = assay: Antiproliferative activity against human PLC-PRF-5 cells; format: functional, cell-based
SK-MEL3 = assay: Antiproliferative activity against human SK-MEL3 cells harboring BRAF V600E mutant assessed as reduction in cell viability by cell-titer Glo assay; format: functional, cell-based
MIA PaCa-2 = assay: Antiproliferative activity against human MIA PaCa-2 cells assessed as reduction of cell viability incubated for 72 hrs by CCK-8 assay; format: functional, cell-based; conditions: MIA PaCa-2, 72 h
MCF7 [17] = assay: Antiproliferative activity against human MCF7 cells assessed as reduction in cell viability incubated for 72 hrs by MTT assay; format: functional, cell-based; conditions: MCF7, 72 h
HCC 2998 = assay: Antiproliferative activity against human HCC 2998 cells assessed as reduction in cell viability incubated for 72 hrs by MTT assay; format: functional, cell-based; conditions: HCC 2998, 72 h
A549 [18] = assay: Antiproliferative activity against human A549 cells assessed as reduction in cell viability incubated for 48 hrs by MTT assay; format: functional, cell-based; conditions: A549, 48 h
HeLa [19] = assay: Antiproliferative activity against human HeLa cells assessed as reduction in cell viability incubated for 48 hrs by MTT assay; format: functional, cell-based
LNCaP [20] = assay: Cytotoxicity against human LNCaP cells assessed as reduction in cell growth incubated for 72 hrs by MTT assay; format: functional, cell-based
[21] = Antiproliferative activity against human HEC-251 cells assessed as reduction in cell viability; format: functional, cell-based
Ishikawa = assay: Antiproliferative activity against human Ishikawa cells assessed as reduction in cell viability by MTS assay; format: functional, cell-based
SMMC-7721 = assay: Antiproliferative activity against human SMMC-7721 cells assessed as reduction in cell viability incubated for 24 hrs by CCK-8 assay; format: functional, cell-based; conditions: SMMC-7721, 24 h
[22] = Antiproliferative activity against human SNU-739 cells; format: functional, cell-based
[23] = Half life in rat at 100 mg/kg, iv; format: ADME, organism-based; conditions: in vivo
HL-60 [24] = assay: Cytotoxicity against human HL-60 cells assessed as reduction in cell viability incubated for 48 hrs by MTT assay; format: functional, cell-based; conditions: HL-60, 48 h
MDA-MB-468 = assay: Antiproliferative activity against human MDA-MB-468 cells assessed as reduction in cell viability incubated for 72 hrs by MTT assay; format: functional, cell-based; conditions: MDA-MB-468, 72 h
LNCaP [25] = assay: Cytotoxicity against human LNCaP cells assessed as reduction in cell growth incubated for 48 hrs by MTT assay; format: functional, cell-based
HepG2 [26] = assay: Anticancer activity against human HepG2 cells assessed as reduction in cell viability; format: functional, cell-based
[27] = Half life in Beagle dog at 15 mg/kg, iv measured for 8 to 12 hrs by LC-MS/MS analysis; format: ADME, organism-based, Canis lupus familiaris; conditions: in vivo, time 8-12 hrs
Huh-7 = assay: Antiproliferative activity against human Huh-7 cells; format: functional, cell-based
143B [28] = assay: Antiproliferative activity against human 143B cells assessed as inhibition of cell growth measured after 24 hrs by MTT assay; format: functional, cell-based
[29] = Antiproliferative activity against human MG-63.3 cells assessed as reduction in cell viability measured for 72 hrs by MTT assay; format: functional, cell-based; conditions: MG-63.3, 72 h
MDA-MB-231 = assay: Antiproliferative activity against human MDA-MB-231 cells assessed as reduction in cell viability incubated for 24 hrs by MTT assay; format: functional, cell-based; conditions: MDA-MB-231, 24 h
NCI-H1975 = assay: Antiproliferative activity against human NCI-H1975 cells assessed as reduction in cell viability incubated for 48 hrs by MTT assay; format: functional, cell-based; conditions: NCI-H1975, 48 h
143B [30] = assay: Antiproliferative activity against human 143B cells assessed as inhibition of cell growth measured after 72 hrs by MTT assay; format: functional, cell-based
[31] = Antiproliferative activity against human EFM-192A cells; format: functional, cell-based
SNU-449 = assay: Antiproliferative activity against human SNU-449 cells; format: functional, cell-based
A549 [32] = assay: Antiproliferative activity against human A549 cells assessed as reduction in cell viability incubated for 72 hrs by MTT assay; format: functional, cell-based; conditions: A549, 72 h
[33] = Half life in Beagle dog at 7.5 mg/kg, iv measured for 8 to 12 hrs by LC-MS/MS analysis; format: ADME, organism-based, Canis lupus familiaris; conditions: in vivo, time 8-12 hrs
[34] = Half life in rat at 25 mg/kg, iv; format: ADME, organism-based; conditions: in vivo
HepG2 [35] = assay: Antiproliferative activity against human HepG2 cells assessed as reduction in cell growth; format: functional, cell-based
Bel-7402 = assay: Antiproliferative activity against human Bel-7402 cells incubated for 72 hrs by MTT assay; format: functional, cell-based; conditions: Bel-7402, 72 h
A549 [36] = assay: Cytotoxicity against human A549 cells assessed as reduction in cell viability incubated for 48 hrs by Alamar Blue assay; format: functional, cell-based; conditions: A549, 48 h
HCT-116 [37] = assay: Anticancer activity against human HCT-116 cells; format: functional, cell-based
MCF7 [38] = assay: Cytotoxicity against human MCF7 cells assessed as reduction in cell viability incubated for 72 hrs by MTT assay; format: functional, cell-based; conditions: MCF7, 72 h
HeLa [39] = assay: Cytotoxicity against human HeLa cells assessed as reduction in cell viability by MTT assay; format: functional, cell-based
HCT-116 [40] = assay: Antiproliferative activity against human HCT-116 cells assessed as inhibition of cell growth incubated for 72 hrs by CCK-8 assay relative to control; format: functional; set-up: scale not given: the % may be the effect or the level left
HeLa [41] = assay: Antiproliferative activity against human HeLa cells assessed as inhibition of cell growth incubated for 72 hrs by CCK-8 assay relative to control; format: functional; set-up: scale not given: the % may be the effect or the level left
HepG2 [42] = assay: Antiproliferative activity against human HepG2 cells assessed as inhibition of cell growth incubated for 72 hrs by CCK-8 assay relative to control; format: functional; set-up: scale not given: the % may be the effect or the level left

Structure (SMILES): COc1ccc(CCc2cc(OC)c(OC)c(OC)c2)cc1O
- IC50 (LNCaP [1]): 33.8 nM
- IC50 (143B [2]): 41 nM
- IC50 (HL-60 [3]): 38 nM
- half-life [4]: 225 min
- IC50 (HepG2 [5]): 120 nM
- IC50 (EJM): 65 nM
- bioavailability [6]: 8.7%
- half-life [7]: 96 min
- IC50 (HepG2 [8]): 584 nM
- IC50 (HepG2 [9]): 43.7 nM
- IC50 [10]: 44.3 nM
- IC50 (A-375): 20.6 nM
- IC50 (HCT-116 [11]): 60 nM
- IC50 (LLC-MK2): 2.3 nM
- IC50 (T-24): 45.9 nM
- Activity (HepG2 [12]): 82.81%
- IC50 (HeLa [13]): 220 nM
- IC50 (HuH-1): 25.9 nM
- IC50 (HLE): 28.6 nM
- IC50 [14]: 88.7 nM
- IC50 (PC-3): 26 nM
- half-life [15]: 90 min
- IC50 (HepG2 [16]): 128 nM
- IC50 (PLC-PRF-5): 55 nM
- IC50 (SK-MEL3): 12 nM
- IC50 (MIA PaCa-2): 50 nM
- IC50 (MCF7 [17]): 60 nM
- IC50 (HCC 2998): 70 nM
- IC50 (A549 [18]): 0.6 nM
- IC50 (HeLa [19]): 8.3 µM
- IC50 (LNCaP [20]): 26.2 nM
- IC50 [21]: 41.8 nM
- IC50 (Ishikawa): 40.6 nM
- IC50 (SMMC-7721): 81 nM
- IC50 [22]: 17.7 nM
- half-life [23]: 233 min
- IC50 (HL-60 [24]): 40 nM
- IC50 (MDA-MB-468): 40 nM
- IC50 (LNCaP [25]): 26.5 nM
- IC50 (HepG2 [26]): 72.8 nM
- half-life [27]: 99.6 min
- IC50 (Huh-7): 44.3 nM
- IC50 (143B [28]): 58.2 nM
- IC50 [29]: 17.2 nM
- IC50 (MDA-MB-231): 71 nM
- IC50 (NCI-H1975): 0.5 nM
- IC50 (143B [30]): 26.8 nM
- IC50 [31]: 78.6 nM
- IC50 (SNU-449): 236 nM
- IC50 (A549 [32]): 70 nM
- half-life [33]: 84.6 min
- half-life [34]: 220 min
- IC50 (HepG2 [35]): 175 nM
- IC50 (Bel-7402): 21.5 nM

Structure (SMILES): Oc1ccc(CCc2cc(O)c(O)c(O)c2)cc1O
- IC50 (A549 [36]): 42 µM
- IC50 (HCT-116 [37]): 42 µM

Structure (SMILES): COc1cc(CCc2ccc(OC(F)F)c(N)c2)cc(OC)c1OC
- IC50 (MCF7 [38]): 130 nM

Structure (SMILES): CCOc1ccc(CCc2cc(OC)c(OC)c(OC)c2)cc1OP(=O)(O)O
- IC50 (HeLa [39]): 570 nM

Structure (SMILES): COc1ccc(/C=C\c2cc(OC)c(OC)c(OC)c2)cc1OP(=O)(O)O [FOSBRETABULIN]
- Activity (HCT-116 [40]): 86.1%
- Activity (HeLa [41]): 84.7%
- Activity (HepG2 [42]): 88.6%
